Measurements taken from patent US6291247A, “Methods of screening for factors that disrupt neurotrophin conformation and reduce neurotrophin biological activity” (priority 1996, dated 2001).
Bridges are numbered along the chain shown (N, C = ends). Where no end group is shown, it is not given here.

Legend:
[1] = target: T1, p75^NTR and TrkA (Mus musculus, UniProt P01139); test: Binding of 125I-NGF to PC12 cells (p75NTR + TrkA); design: species or system rat; settings: for Total Binding to PC12 cells: 100 μM, 125I-NGF, 120 min
T1 construct: these cells express both NGF receptor types; endogenous in cells; host or cells: PC12 rat pheochromocytoma cells
T1 sequence (P01139 122-239): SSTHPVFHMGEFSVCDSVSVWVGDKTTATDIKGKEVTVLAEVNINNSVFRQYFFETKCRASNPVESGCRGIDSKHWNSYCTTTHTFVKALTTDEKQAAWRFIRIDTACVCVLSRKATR
Description: (§1) PC12 cells were grown in RPMI with 10% heat inactivated donor horse serum and 5% fetal calf serum. […] The tubes were incubated for 2 hr at 4° C. and 100 μl aliquots (providing triplicate data points for each sample) were transferred to 400 μl microcentrifuges containing 200 μl of 10% glycerol in HKR. Tubes were centrifuged for 2 minutes at 5,000 rpm, the tip containing the cell pellet cut off and radioactivity bound to the cells was determined.

[2] = tested on: PC12 cells; test: NGF-dependent survival of PC12 cells; type: cell-based, rat; settings: for Survival @ 50 pM NGF / Survival @ 1 nM NGF: rat, pc12 cells, 100 µM; for Antagonism of NGF-dependent survival: high (1 nM) or low (50 pM) NGF
Description: (§2) Effects of divalent ions on NGF mediated survival and toxicity was evaluated using a colorimetric assay for the lysosomal enzyme acid phosphatase to determine cell number (Connolly, D. T., Knight, M. B., Harakas, N. K, Wittwer, A. J. & Feder, J. Determination of the number of endothelial cells in culture using an acid phosphatase assay. Anal. Biochem. 152, 136-140 (1986); Ueda, Y., Walsh, E., Nakanishi H. & Yoshida, K. A. colorometric assay method for the evaluation of neurotrophic activity in vitro. Neurosci. Lett. 165, 203-207 (1994)). […] To evaluate toxicity, the cells were seeded and maintained without NGF in RPMI with 10% heat inactivated donor horse serum and 5% fetal calf serum in the presence of additives. Loss in viable cell number was determined and expressed as a percent of control. NGF rescues PC12 cells from cell death in serum-free medium(Greene, L. A. Nerve growth factor prevents the death and stimulates neuronal differentiation of clonal PC12 pheochromocytoma cells in serum-free medium. J. Cell Biol. 78, 747-755 (1978)). NGF-dependent survival was assessed by harvesting PC12 cells in balanced salt solution followed with washing by 4 cycles of suspension and centrifugation in serum-free RPMI prior to seeding in 96 well plates. After incubation with additives, medium was removed from the wells and cells washed once with 200 μl PBS. Buffer containing 0.1M sodium acetate pH 5.5, 0.1% Triton X-100 and 10 mM p-nitrophenyl phosphate (Sigma 104 phosphatase substrate) was added to each well (100 μl). Plates were incubated at 37° C. for 3 hours. The reaction was stopped by the addition of 10 μl/well of 1N sodium hydroxide and the color development measured at 405 nm using a microplate reader. The relationship between cell number and enzyme activity was linear over the range 1000 to 15,000 cells.
(§3) To explore the ability of other transition metals to influence the biological activities of NGF, a series of cations known to mimic in certain respects the binding of zinc to proteins were tested. […] For this reason these ions were not tested in NGF- dependant growth phenomena. […] As these studies appeared to indicate potentially complex results upon metal ions binding to NGF, a receptor crosslinking system where specific receptor types could be identified was utilized.

[3] = target: T2, NGF (Mus musculus, UniProt P01139); test: NGF protomer crosslinking with BS3 (NGF conformation), metal ions; type: biochemical; settings: for NGF Protomer Conformation (active/inactive): 100 μM
T2 construct: homodimer
T2 sequence (P01139 122-239): as above
Description: For crosslinking NGF […], 0.4 mM BS^3 was added to the mixture and incubated for 30 minutes at 25° C. […] For CD studies, NGF (50 μg/ml) was dissolved in 50 mM Tris-HCl buffer and spectra recorded using a computer controlled Jasco J-600 spectropolarimeter. Samples were acquired in the absence or presence of Zn^2+ (100 μM) at 22° C. in a 2 mm quartz cell averaged over eight scans. Modification of His residues by DEPC was carried out as previously described, where the molar excess of DEPC added and the extent of reaction was determined by evaluating the loss of binding activity of the modified product.

[4] = tested on: PC12 cells; test: Toxicity to PC12 cells; type: cell-based, rat; settings: 100 μM
Description: as §2, §3

[5] = tested on: p75^NTR /TrkA; test: Receptor crosslinking of 125I-NGF with transition metal ions (receptor selectivity); type: binding
Chain of p75^NTR /TrkA (P01139 122-239): as above
Chain of p75^NTR /TrkA (P07174 30-425 partner): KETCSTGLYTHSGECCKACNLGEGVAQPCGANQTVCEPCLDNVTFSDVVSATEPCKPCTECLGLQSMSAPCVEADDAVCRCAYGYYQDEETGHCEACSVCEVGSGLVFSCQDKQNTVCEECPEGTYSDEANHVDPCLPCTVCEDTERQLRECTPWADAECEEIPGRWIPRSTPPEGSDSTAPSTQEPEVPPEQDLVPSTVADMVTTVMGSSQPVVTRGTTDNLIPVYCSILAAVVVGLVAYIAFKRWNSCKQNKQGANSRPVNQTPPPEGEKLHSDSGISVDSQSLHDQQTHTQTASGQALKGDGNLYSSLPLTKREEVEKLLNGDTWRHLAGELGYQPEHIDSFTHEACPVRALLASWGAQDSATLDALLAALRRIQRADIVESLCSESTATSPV
Chain of p75^NTR /TrkA (P35739 33-799 partner): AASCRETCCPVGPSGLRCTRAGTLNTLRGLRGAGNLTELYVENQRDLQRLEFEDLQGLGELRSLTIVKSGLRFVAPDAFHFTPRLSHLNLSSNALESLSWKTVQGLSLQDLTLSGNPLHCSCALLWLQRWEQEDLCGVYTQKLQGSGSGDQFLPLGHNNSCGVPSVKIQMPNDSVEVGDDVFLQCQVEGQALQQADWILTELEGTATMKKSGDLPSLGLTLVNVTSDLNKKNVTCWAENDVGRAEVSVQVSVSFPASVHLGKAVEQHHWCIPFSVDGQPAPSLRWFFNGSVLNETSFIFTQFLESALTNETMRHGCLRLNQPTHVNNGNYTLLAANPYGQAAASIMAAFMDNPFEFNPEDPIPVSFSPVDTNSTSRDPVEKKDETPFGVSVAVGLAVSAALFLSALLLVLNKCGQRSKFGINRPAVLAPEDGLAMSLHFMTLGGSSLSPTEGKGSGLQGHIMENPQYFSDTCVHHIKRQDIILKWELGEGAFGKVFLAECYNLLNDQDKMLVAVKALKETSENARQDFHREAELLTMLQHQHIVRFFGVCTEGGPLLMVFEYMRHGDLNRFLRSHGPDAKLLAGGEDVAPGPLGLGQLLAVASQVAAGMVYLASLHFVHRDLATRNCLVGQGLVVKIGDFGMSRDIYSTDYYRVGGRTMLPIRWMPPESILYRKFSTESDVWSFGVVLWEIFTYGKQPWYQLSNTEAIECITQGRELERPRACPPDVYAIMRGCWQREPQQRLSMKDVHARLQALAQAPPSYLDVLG
Description: as §3

[6] = tested on: p75; test: Affinity cross-linking of 125I-NGF to p75 on PC12 cells; type: binding, rat; settings: for Inhibition of p75 Interaction: 200 μM peptide, 0.1 nM 125I-NGF, PC12 cells
Description: The ability of the peptides under study to interfere with binding of NGF to NGF receptors was evaluated by analysis of inhibition of the chemical cross-linking of ^251 I-NGF to the common neurotrophin receptor p75 (Chao, J. Neurobiol. 25:1373-1385 (1994)) and the specific NGF receptor TrkA (Barbacid, J. Neurobiol. 25: 1386-1403 (1994)). Immunoprecipitation and polyacrylamide gel electrphoresis of cross linked receptors allowed identification of both receptors, as shown in FIG. 7A. […] At concentrations of 200 μM, neither R11(l) nor R11(m) were able to inhibit greater than 50% of the observed ^125 I-labelling.
The ability of the peptides derived from the 68-58/108-110 region of NGF to antagonize NGF interaction with the p75 and TrkA receptors was determined The peptides tested were bicyclic (BC) 68-58/108-110, cyclic (C) 68-58/108-110, and linear (L) 68-58/108-110, each of which are illustrated in FIGS. 2 and 5D
Receptor cross-linking studies were performed on PC12 rat pheochromocytoma cells (ATCC CRL 1721; Greene et al., Proc. Natl. Acad. Sci. USA 73: 2424-2432 (1976)) which were maintained in RPMI1640 (Gibco) supplemented with 10% fetal calf serum (Gibco). Cells were harvested by incubation and trituration in Ca^2+ and Mg^2+ free Gey's balanced salt solution, washed and suspended in 10 mM HEPES buffer (pH 7.35) containing 125 mM NaCl, 4.8 mM KCl, 1.3 mM CaCl2, […], 1.2 mM KH2 PO4, 1 g/L sucrose and 1 g/L bovine serum albumin (HEPES Krebs Ringer buffer, HKR buffer) at 10^6 cells/mL. Subsequent procedures were carried out at 4° C. unless otherwise noted.
For receptor crosslinking, ^125 I-NGF was prepared by the method of Sutter et al. (J. Biol. Chem. 254: 5972-5982 (1979)) from NGF isolated from mouse submaxillary gland (as described in Mobley et al., Biochemistry 15:1543 (1976)) obtained from Cedarlane.
[…] Control PC12 cells were incubated in HKR buffer in the presence of ^125 I-NGF only (no NGF peptide).
Receptor proteins were cross-linked with either 0.4 mM bis(sulfosuccinimidyl)suberate (BS^3, Pierce) for TrkA, or a combination of 2 mM […] (EDC) and 2 mM N-hydroxysulfosuccinimide (S-NHS) for p75^NTR as indicated. All cross-linking agents (from Pierce) were dissolved in water and added in 20 μL aliquots and the reaction allowed to proceed for 30 min at 25° C. On completion of the cross-linking reaction, the cells were washed three times in HKR buffer with BSA at 4° C. to remove excess free radiolabelled ligand and reagents. The cells were solubilized in 100 μL SDS sample buffer Samples were separated on a modified Laemmli discontinues acrylamide gel system (Laemmli, Nature 227:680 (1970)) using 4% SDS-PAGE stacking gel and a gradient urea polyacrylamide separating gel ranging from 4.5% acrylamide/18% urea to 7.5% acrylamide/48% urea. The gels were fixed and processed for autoradiography using -70° C. exposure with Kodak XAR film and manual processing (FIG. 7B).
For positive receptor identification, immunoprecipitation studies were performed. Samples of 10^7 cells in 1 mL HKR buffer were cross-linked under the conditions described above, washed in HKR buffer and solubilized in non-denaturing lysis buffer (1% NP40, 10% glycerol, 1 mM phenylmethylsulfonylfluoride, 10 μg/mL leupeptin and 0.5 mM o-vanadate in Tris-buffered saline) (Kaplan et al., Nature 350:1 158-160 (1991)). The solutions were clarified by centrifugation and immunoprecipitated with either mAb 192 (monoclonal antibody for p75; Cedarlane) or rabbit anti-TrkA, which had been raised against a COOH-terminal peptide of TrkA. The ^125 I-NGF cross-linked receptor-antibody complexes were isolated using 50 μL of a 50% solution of rabbit anti-mouse agarose (Sigma; for mAb 192) or protein A-Sepharose (Pharmcia; for anti-Trk) equilibrated in lysis buffer. Immunoprecipitates were washed three times in lysis buffer and the pellets denatured in SDS reducing sample buffer. […]

[7] = tested on: T3, p75^NTR and TrkA; test: Binding of 125I-NGF to PC12 cells (p75NTR + TrkA); design: species or system rat
T3 construct: these cells express both NGF receptor types; endogenous in cells; host or cells: PC12 rat pheochromocytoma cells
T3 sequence (P01139 122-239): as the sequence (P01139 122-239) above
Description: as §1

[8] = target: T2, NGF; test: Cross-linking of NGF protomers in a cell-free system (Example 6); type: biochemical; settings: R11 analogues, concentration not given
[9] = tested on: dorsal root ganglion (DRG) neurons; test: NGF-dependent neurite growth of ED8 chick DRG neurons (FIG. 6, Terasaki plates); type: cell-based; settings: concentrations up to 200 μM
Description: FIG. 6 is a graph showing the ability of R11 to inhibit the activity of NGF in vitro using a biological assay system. […] Dissociated cells enriched for sensory neurons were prepared from embryonic day 8 (ED8) chick dorsal root ganglion (DRG) as described (Sutter et al., J. Biol. Chem. 254: 5972-5982 (1979)). Neurons were seed into wells of Terasaki plates treated sequentially with poly-D-lysine and laminin at a density of 800-1000 cells/well in "synthetic" Dulbecco's modified Eagle medium (Bottenstein et al., Proc. Natl. Acad. Sci. USA 76: 514-517 (1979)) containing 1% fetal calf serum and NGF at […]. The cells were incubated with the additives indicated at 37° C. in a 5% CO2 atmosphere At 18-20 hours, the cells were fixed in 4% formaldehyde in phosphate-buffered saline and scored for neurite growth. The cells on the entire lower horizontal surface of the well were counted using an inverted microscope fitted with phase contrast optics. A neurite was scored if its caliber from origin to terminal was constant and its length was equal to or greater than 1.5 cell body diameters. Neurite growth was corrected for background (no NGF) growth in the presence and absence of peptide.
Such a profile is not typical of a competitive inhibitor. That is, a different dose response profile would be expected if R11 were simply competing with NGF for binding to a receptor. Neither of the less constrained synthetic Intermediates of R11, i.e., R11 (linear) or R11 (monocyclic), was as effective in blocking NGF-dependent neurite growth concentrations up to 200 μM.

| Molecule | Total Binding to PC12 cells [1] [% control] | Survival @ 50 pM NGF [2] [% control] | Survival @ 1 nM NGF [2] [% control] | NGF Protomer Conformation (active/inactive) [3] | Toxicity (PC12 cell viability) [4] [% control] | Blocking of NGF binding to TrkA and p75NTR in receptor crosslinking [5] | also measured |
| --- | --- | --- | --- | --- | --- | --- | --- |
| [Mn+2] [Mn^2+] | 95 ± 24 | 91 ± 5 | 59 ± 24 | inactive | 82 ± 4 | did not have a significant effect | – |
| CCOC(=O)OC(=O)OCC [DEPC, diethyl-pyrocarbonate, reference compound] | – | – | – | – | – | – | Receptor binding activity of NGF modified with DEPC [1]: loss in receptor binding activity; Protomer crosslinking efficiency of NGF modified with DEPC ([3]; no Zn2+): reduction in protomer crosslinking efficiency |
| NH2 -Cys-Gly-Ser-Glu-Val-Pro-Asn-Ser-Ala-Arg-Cys-Cys-Val-Cys-OH (H-CGSEVPNSARCCVC-OH; not fully specified; printed as NH2 -Cys-Gly-Ser-Glu-Val-Pro-Asn-Ser-Ala-Arg-Cys-Cys-Val-Cys-OH; cysteine pairing not given here) [R11(m), monocyclic R11 with a single disulfide bond] | – | – | – | – | – | – | Inhibition of p75 Interaction ([6]; listed as C): no inhibition |
| [Cu+2] [Cu^2+] | -16 ± 7 | -2 ± 19 | -6 ± 8 | active | 74 ± 10 | blocked binding to both receptors | Prevention of 125I-NGF binding to PC12 cells [7]: ability to prevent binding; Antagonism of NGF-dependent survival [2]: ability to antagonize the NGF-dependant survival |
| SR11: identical amino acid composition to R11 except that the eleven N-terminal residues have been inverted to the naturally occurring NGF sequence 58-68 (CRASNPVESGCCVC; disulfide 1-14, 11-12) | – | – | – | – | – | – | Cross-linking of NGF promoters (NGF dimer disruption assay) [8]: equally etude in reducing crosslinking of NGF promoters as R11 |
| NH2 -Cys-Gly-Ser-Glu-Val-Pro-Asn-Ser-Ala-Arg-Cys-Cys-Val-Cys-OH (H-CGSEVPNSARCCVC-OH; not fully specified; printed as NH2 -Cys-Gly-Ser-Glu-Val-Pro-Asn-Ser-Ala-Arg-Cys-Cys-Val-Cys-OH; cysteine pairing not given here) [R11(l), linear peptide R11] | – | – | – | – | – | – | Inhibition of the observed 125I-labelling (p75) ([6]; 200 μM): ≤ 50%; Inhibition of p75 Interaction ([6]; listed as L): no inhibition; Blocking of NGF-dependent neurite growth [9]: Neither of the less constrained intermediates R11(l) or R11 (m) were effective |
| [Pt+2] [Pt^2+] | 68 ± 11 | 74 ± 21 | 92 ± 35 | active | 93 ± 6 | blocked binding to both receptors | Antagonism of NGF-dependent survival [2]: ability to antagonize the NGF-dependant survival |
| [Pd+2] [Pd^2+] | -5 ± 1 | 82 ± 9 | 125 ± 48 | active | 75 ± 6 | blocked binding to both receptors | Prevention of 125I-NGF binding to PC12 cells [7]: ability to prevent binding |
